Non-standard residues stand in square brackets, D forms with d. Residues, ends and D or L forms follow the SMILES beside them. *: point of attachment. Npys = O=[N+]([O-])c1cccnc1S*; Mpa = O=C(O)CCS; OiPr = CC(C)O*

By melting point is commonly meant the temperature of the solid-liquid transition.

In turn, `Fc1ccc(-c2nc3ccccc3n3cncc23)cc1` yielded a melting point of 214 to 215 °C. Then `S=C(OCc1ccc(Cl)c(Cl)c1)SC(Cn1ccnc1)c1ccc(Cl)cc1Cl` (configuration not stated), with 140 °C; and `COCCCCC(=O)c1cc(C(=O)O)c2cc(Cc3ccc(F)cc3)cnc2c1O`, with 216 to 218 °C; and `CC(C)C[C@@H](C=O)NC(=O)[C@H](Cc1c[nH]cn1)NC(=O)[C@H](Cc1ccccc1)NC(=O)CCSSc1ncccc1[N+](=O)[O-]` ([Mpa](Npys)FHL-aldehyde), with 101 to 105 °C. Turning to `CCN(CC)C(=S)n1cnc(S(=O)(=O)CC2CCCC2)n1`, the melting point was determined as 78 °C. `C=Cc1c(F)c(N2CCN(CC)CC2)c(F)c2c1c(=O)c(C(=O)O)cn2C1CC1` came in with a melting point of 198 to 200 °C. `O=C(O)CC(Cn1cnc2c(=O)[nH]cnc21)C(=O)O` (configuration not stated) registered a melting point of 130 to 135 °C. Compound `COc1ccc(C(=O)Nc2c(Cl)cncc2Cl)c2c1OCC2CC(=O)NCc1ccccc1` (configuration not stated) had a melting point of 284 to 286 °C. The compound `COc1cc(OC(=O)c2ccc(OC)c(C34CC5CC(CC(C5)C3)C4)c2)ccc1C(=O)O` registered a melting point of 199 to 200 °C. Then `O=C1Nc2ccccc2Sc2nccn21`, with 250 to 252 °C; and `C=C(C(=O)c1ccc(C(=O)OC)cc1)c1cc(OC)c(OC)c(-c2cccs2)c1`, with 102 to 103 °C. In the case of `CCOC(=O)N(CCNc1ccc2ncc(-c3ccc(C(N)=O)cc3)n2n1)c1ccccc1`, the melting point lay within 227 to 228 °C. `CC(C)(C)NC(=O)CN(C(=O)CN1C(=O)c2ccccc2C1=O)c1ccccc1` gave a melting point of 166 °C. Turning to `O=C(O)CCSc1nnc(S)s1`, the melting point was in the range of 105 to 108 °C.

Compound `CC(C)n1nc(-c2nc(-c3cn[nH]c3)c(N)nc2-c2ccccc2)ccc1=O` returned a melting point above 250 °C.

`CCc1ccc2c(c1)[C@@H](N1CCCC1=O)[C@H](O)C(C)(C)O2` (relative stereo) registered a melting point of 154 to 163 °C. `COc1cc(-c2ccc(-c3ccc(N)c(OC)c3)o2)ccc1N` returned a melting point of 188 to 190 °C. The compound `CC(=O)OC1CSC(Oc2cccc(C)n2)C(OC(C)=O)C1OC(C)=O` (configuration not stated) gave a melting point of 106 °C. With `Cn1cc(-c2ccccc2)c(=O)c(-c2cccc([N+](=O)[O-])c2)c1`, the melting point lay within 135 to 136 °C. On to `CC(=O)NC[C@H]1CN(c2ccc(-c3ncns3)c(F)c2)C(=O)O1`, for which the melting point is 199 to 200 °C. In turn, `CCOC(=O)Cn1c(C(=O)NCc2nnc3n2-c2sc(CC)cc2C(c2ccccc2Cl)=NC3)cc2ccccc21` displayed a melting point of 215 to 217 °C. In turn, `CC(=O)OCCCN1CCC(CNC(=O)[C@@H]2CCCN2S(=O)(=O)c2ccc(Cl)c(COc3cccc4c(-n5ccnc5)cc(C)nc34)c2Cl)CC1` had a melting point of 96 °C. For `CCCCc1n[nH]c(CCCC)n1`, the melting point was 50.5 to 51.5 °C. Then `CCOC(=O)c1cn(NC=O)c2cc(Cl)c(F)cc2c1=O`, with 263 to 264 °C.

In the case of `CC(Cc1c[nH]c2ccccc12)(NC(=O)OC(CF)C(F)F)C(=O)NCCc1ccccn1` (configuration not stated), the melting point was in the range of 65 to 67 °C. Consider `CCCn1c(=O)c2[nH]c(/C=C/c3ccc(OCOC)c(OC)c3)nc2n(CCC)c1=O`, for which the melting point stood at 227 °C. Then `CCCC(CC(CC)SC)CC1OC(n2cnc3c(N)ncnc32)C(O)C1O` (configuration not stated), with 78 to 80 °C. As to `O=C(O)COc1ccc2c(-c3ccco3)noc2c1Cl`, the melting point is 230 to 233 °C. With `COc1cc2cc(-c3cccnc3)cnc2cc1OC`, the melting point lay in the range of 131 to 132 °C.

As to `COc1ccc(C(=O)Nc2ccncc2)c2c1oc1ccc(NC(C)=O)cc12`, the melting point is 267 to 268 °C. Consider `CCC(CC)c1ccc(C#N)c2nc(Oc3ccc(Cl)cc3Br)n(C)c12`, for which the melting point was in the range of 136 to 137 °C. In the case of `Cc1onc(-c2ccccc2)c1-c1nc(-c2c(F)cccc2Cl)nn1C`, the melting point was 120 to 125 °C. `O=C(O)c1ccc(NC(=O)N(Cc2ccccc2)Cc2ccccc2)cc1` showed a melting point of 210 to 214 °C.

Turning to `CCOC(=O)CCC(C#N)(c1ccccc1)C(C)C` (configuration not stated), the melting point was 82 to 84 °C. In turn, `NC(=O)Nc1cccc2c1nc(/C=C/c1ccccc1)n2-c1ccccn1` gave a melting point above 230 °C. `O=C(O)c1ccc(NCCc2ccc(F)cc2)cc1` had a melting point of 161 to 163 °C. `Cc1cccc(N2CCN(c3ccnc4sc(C(N)=O)c(N)c34)CC2C)c1` (configuration not stated) had a melting point of 215 to 217 °C. `Cc1cc(C2=NOC(c3cc(Cl)cc(Cl)c3)(C(F)(F)F)C2)ccc1Cl` (configuration not stated) yielded a melting point of 110 to 111 °C. For `CCCCc1nc(C#N)c(C#N)n1Cc1ccc(N)cc1`, the melting point lay within 99 to 104 °C.

Regarding `CN1C(=O)C(C(=O)Nc2ccccc2)Sc2ccccc21` (configuration not stated), the melting point lay in the range of 124 to 126 °C. Compound `Cc1cc(-n2ccc(OCc3ccccc3)cc2=O)sc1C(=O)NCc1ccccc1` came in with a melting point of 153 to 154 °C. Regarding `CC(C)OC(=O)C(CO)NC(=O)C(CC(=O)O)NC(=O)C1CCCN1` (stereo not drawn) (H-Pro-Asp-Ser-OiPr; configuration not given here), the melting point was in the range of 230 to 233 °C.

On to `COC(=O)C(=O)c1ccc(OCCOc2ccc(C(F)(F)F)cc2)cc1`, for which the melting point fell in the range of 96 to 98 °C. Compound `CC(C)(C)c1cc(CCc2ccccc2NC(=O)NCCN2CCOCC2)cc(C(C)(C)C)c1O` came in with a melting point of 166 to 167 °C. Turning to `CS(=O)(=O)N1CCC(NC(=O)NC23CC4CC(CC(C4)C2)C3)CC1`, the melting point was in the range of 228 to 229 °C. As to `COc1ccc(N2Cc3cnc(Nc4ccccc4)nc3N([C@@H](C)CO)C2=O)cc1`, the melting point lay within 140 to 147 °C. `CC(=O)c1ccc2c(c1)CCc1ccc(C#N)cc1S2` gave a melting point of 138 to 141 °C.

In the case of `COc1ccc(C(=O)CC2CCCCCCC2=O)cc1` (configuration not stated), the melting point was 54 to 56 °C. On to `COc1ccc(C=CC(=O)NNC(=O)C=Cc2ccccc2)cc1`, for which the melting point was 263 °C.

On to `COc1ccc(C2=C(c3ccccc3)CCCc3cc(OCc4ccccc4)ccc32)cc1`, for which the melting point lay in the range of 163 to 164 °C. Consider `COCCOc1ccc(C=NOC)cc1O`, for which the melting point is 63 to 64 °C.

On to `O=c1c(Br)cn(Cc2ccccc2)cc1Cc1ccccc1`, for which the melting point is 120 to 121 °C. The compound `CC(C)(C)OC(=O)NC1CCCCCC=CC2CC2(C(=O)NS(=O)(=O)C2CC2)NC(=O)C2CC(OC(=O)c3cccnc3)CN2C1=O` (configuration not stated) came in with a melting point of 157 to 159 °C. As for `COCN1CC(CN)c2c[nH]c3cccc(c23)C1=O` (configuration not stated), the melting point lay within 160 to 163 °C. For the compound `O=C1c2c(Cl)cccc2-n2cnc(I)c2[C@@H]2CCCN12`, the melting point is 298 to 300 °C. Take `O=S(=O)(c1ccc(CO)cc1)N1CCCC1c1ccc(F)cc1` (racemic): the melting point was 107 °C. Then `NCCCC(O)c1ccccc1` (configuration not stated), with 94 to 96 °C; and `CCCCCCCCCCCCCCCOC(=O)c1cccnc1`, with 35 °C; and `COc1ccc(S(=O)(=O)C2(C(=O)NO)CCN(Cc3ccc(C)cc3)CC2)cc1`, with 176 to 177 °C. With `CN(C)C(=O)Nc1ccc(Oc2ccc3sncc3c2)cc1` the figure was 156 °C; with `O=C(O)/C=C/n1cnc2ccc(Cl)cc2c1=O`, 297 to 298 °C; with `O=C1Nc2ccccc2C12CCC2`, 140 to 145 °C.

The compound `COc1ccc2nc(CN3CCN(c4ccc(Cl)cc4Cl)CC3)cn2c1` returned a melting point of 130 °C. Consider `Cc1cc(N2N=CCNC2=O)cc(Cl)c1C(C#N)c1ccc(Cl)nc1` (configuration not stated), for which the melting point lay within 211 to 212 °C. `CCCc1ccc(S(=O)(=O)NCc2ccccn2)cc1` registered a melting point of 109 °C.

`CC(C)(C)c1cc(-c2nn(CCC#N)c3ncccc23)cc(C(C)(C)C)c1O` showed a melting point of 158 to 160 °C. `COc1ccc(C(=O)C=Cc2cccc([N+](=O)[O-])c2)c(OC)c1OC` registered a melting point of 130 to 131 °C. With `CCCCCCCCCCCc1nc2c(O)c(NC(C)=O)cc(Cl)c2cc1CCCCCCCCCC` the figure was 120 to 121 °C; with `O=C(O)COc1cc(F)c(F)cc1C(=S)NCc1ccc(Br)cc1F`, 206 to 209 °C. With `Cc1nc2ccc(Cl)cc2n2c(-c3ccccc3Cl)nnc12` the figure was 209 °C. `CCOC(=O)C1=C(NC(=O)Nc2ccc(Cl)c(C(=O)OCC)c2)CCCC1`: the melting point fell in the range of 119 to 122 °C. With `CCCSc1nc(-c2ccc(C#N)cc2)cn1-c1ccc(I)cc1` the figure was 110 to 115 °C; with `Cc1ccc(C(=O)NC(NC(=NC#N)Nc2ccccc2)C(Cl)(Cl)Cl)cc1` (configuration not stated), 197 to 199 °C; with `NC(=O)CCC1OC(=O)NC1c1cc(F)c(-n2nnc(Cc3cccs3)n2)c(F)c1` (configuration not stated), 142 to 144 °C.

`COC(=O)CC1=C(C)Cc2cc(F)c(F)cc21` returned a melting point of 86 to 90 °C. Then `CC(Cc1ccc(Oc2cc(N3CCN(Cc4ccccc4)CC3)nc(Oc3ccccc3)n2)cc1)(Oc1ccccc1)C(=O)O` (configuration not stated), with 126 to 128 °C; and `CCOc1nc2c(cnn2CC)nc1C#N`, with 73 to 74 °C. The compound `CC1CC(=O)NN=C1c1ccc(-n2cnc3c2CCCC3)cc1` (configuration not stated) gave a melting point of 199 to 200 °C.

As for `CC(c1ccc(F)cc1)N1CCN(c2cc(Oc3cccc4c(=O)[nH]ccc34)ncn2)CC1` (configuration not stated), the melting point turned out to be 249 °C. The compound `O=C(O)CN1Cc2ccccc2CC(NC(=O)OCC2c3ccccc3-c3ccccc32)C1=O` (configuration not stated) showed a melting point of 117 to 120 °C. For the compound `O=[N+]([O-])c1ccc(C(O)C(CO)[N+](=O)[O-])cc1` (configuration not stated), the melting point lay in the range of 105 to 107 °C. Compound `COC(=O)c1ccc(O)c([C@H](CCN(C(C)C)C(C)C)c2ccccc2)c1` returned a melting point of 102 °C. `COC(=O)c1sc(C(F)(F)F)cc1OC`: the melting point is 78 to 79 °C. As to `CCN1CCC(C(=O)O)(S(=O)(=O)c2ccc(Oc3ccc(Cl)cc3)cc2)CC1`, the melting point is 184 °C. Then `CC1Nc2ccc(-c3coc(C#N)c3)cc2C(C)(C)O1` (configuration not stated), with 116 to 118 °C.

Compound `CCCCNS(=O)(=O)c1cc(C(=O)CCl)ccc1Cl` had a melting point of 89 °C. `COc1ccc(N2CCc3c2c2cccc(OC)c2[nH]c3=O)c(C)c1` displayed a melting point of 188 to 191 °C.

The values above are taken from a melting point compilation (Tetko et al.; mined from patent text by program, amines drawn as free bases though some values may be those of a salt).
